Results reported in ChEMBL document CHEMBL1135289, “Anthranilate sulfonamide hydroxamate TACE inhibitors. Part 2: SAR of the acetylenic P1' group” (Bioorg Med Chem Lett, 2002).

How the values were obtained:
[1] = molecular target: T1, Interstitial collagenase (Homo sapiens) (UniProt P03956); experiment: Inhibition of Matrix metalloprotease-1 at 10 uM
T1 sequence (whole entry): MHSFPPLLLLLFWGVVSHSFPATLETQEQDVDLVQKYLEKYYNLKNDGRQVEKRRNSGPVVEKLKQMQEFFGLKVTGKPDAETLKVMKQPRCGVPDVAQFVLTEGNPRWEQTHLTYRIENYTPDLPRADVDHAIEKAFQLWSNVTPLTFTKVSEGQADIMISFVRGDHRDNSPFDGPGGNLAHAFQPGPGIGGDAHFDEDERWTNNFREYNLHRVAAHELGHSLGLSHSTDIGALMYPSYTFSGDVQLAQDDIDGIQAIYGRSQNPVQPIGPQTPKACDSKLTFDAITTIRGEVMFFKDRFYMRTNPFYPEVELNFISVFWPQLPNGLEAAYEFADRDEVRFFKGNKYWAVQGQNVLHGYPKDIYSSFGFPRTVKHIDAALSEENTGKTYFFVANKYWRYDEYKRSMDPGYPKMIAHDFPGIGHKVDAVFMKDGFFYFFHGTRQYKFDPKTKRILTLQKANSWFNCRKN

[2] = molecular target: T2, Matrix metalloproteinase-9 (Homo sapiens, UniProt P14780); experiment: Inhibition of Matrix metalloprotease-9 activity
T2 sequence (P14780 whole entry): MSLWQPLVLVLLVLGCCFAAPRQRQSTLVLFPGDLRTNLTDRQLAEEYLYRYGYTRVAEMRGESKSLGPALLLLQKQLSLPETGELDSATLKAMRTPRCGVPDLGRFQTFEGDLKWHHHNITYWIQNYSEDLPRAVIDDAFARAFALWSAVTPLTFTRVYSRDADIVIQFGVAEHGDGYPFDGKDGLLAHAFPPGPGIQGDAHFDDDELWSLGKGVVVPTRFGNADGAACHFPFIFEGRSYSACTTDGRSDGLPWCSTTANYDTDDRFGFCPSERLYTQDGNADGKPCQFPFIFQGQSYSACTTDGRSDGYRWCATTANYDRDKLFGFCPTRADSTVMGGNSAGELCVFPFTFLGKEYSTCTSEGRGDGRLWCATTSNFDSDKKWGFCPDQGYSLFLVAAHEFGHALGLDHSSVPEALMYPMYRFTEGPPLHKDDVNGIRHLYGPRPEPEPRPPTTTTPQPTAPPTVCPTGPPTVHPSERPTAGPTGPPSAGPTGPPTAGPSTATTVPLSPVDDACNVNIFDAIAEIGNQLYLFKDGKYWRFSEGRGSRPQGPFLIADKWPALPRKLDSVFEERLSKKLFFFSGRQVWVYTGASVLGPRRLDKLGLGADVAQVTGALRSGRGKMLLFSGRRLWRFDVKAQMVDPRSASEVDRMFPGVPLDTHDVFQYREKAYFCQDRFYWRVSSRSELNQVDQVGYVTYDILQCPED

Collagenase 3 [3] = molecular target: T3, Collagenase 3 (Homo sapiens, UniProt P45452); experiment: Inhibition of Matrix metalloprotease-13 activity
THP-1 [4] = experiment: Inhibition of LPS-stimulated TNF-alpha production in THP-1 cells at a concentration of 3 uM; format: functional; details: Homo sapiens
[5] = molecular target: Disintegrin and metalloproteinase domain-containing protein 17 (Homo sapiens, UniProt P78536); experiment: Inhibition of Tumor necrosis factor alpha converting enzyme
Chain of Disintegrin and metalloproteinase domain-containing protein 17 (P78536 whole entry, the tested form may be a part): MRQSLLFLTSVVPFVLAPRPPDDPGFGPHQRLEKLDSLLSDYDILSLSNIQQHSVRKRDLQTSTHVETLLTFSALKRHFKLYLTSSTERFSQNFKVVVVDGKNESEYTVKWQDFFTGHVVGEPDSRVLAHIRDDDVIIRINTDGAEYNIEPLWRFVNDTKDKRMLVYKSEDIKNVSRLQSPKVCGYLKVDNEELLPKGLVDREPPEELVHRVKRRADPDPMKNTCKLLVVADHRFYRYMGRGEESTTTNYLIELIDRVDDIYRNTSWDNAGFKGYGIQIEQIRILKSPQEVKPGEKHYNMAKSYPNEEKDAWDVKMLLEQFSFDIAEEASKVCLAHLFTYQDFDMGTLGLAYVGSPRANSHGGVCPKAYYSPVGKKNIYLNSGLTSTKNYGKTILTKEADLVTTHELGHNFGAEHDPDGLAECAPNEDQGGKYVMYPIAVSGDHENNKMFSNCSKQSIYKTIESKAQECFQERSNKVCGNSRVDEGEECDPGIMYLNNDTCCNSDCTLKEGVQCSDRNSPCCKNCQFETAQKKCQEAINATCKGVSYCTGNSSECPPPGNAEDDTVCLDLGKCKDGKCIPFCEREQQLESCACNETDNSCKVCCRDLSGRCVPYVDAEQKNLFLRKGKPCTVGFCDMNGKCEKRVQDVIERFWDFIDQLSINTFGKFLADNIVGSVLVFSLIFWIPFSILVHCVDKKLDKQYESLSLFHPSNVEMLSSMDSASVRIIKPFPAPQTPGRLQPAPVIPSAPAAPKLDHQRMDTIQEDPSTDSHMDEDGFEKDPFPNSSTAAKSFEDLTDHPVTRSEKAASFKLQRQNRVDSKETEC

Interstitial collagenase = molecular target: T4, Interstitial collagenase (Homo sapiens, UniProt P03956); experiment: Inhibition of Matrix metalloprotease-1
T4 sequence (P03956 whole entry): T1 sequence (whole entry)

Collagenase 3 [6] = molecular target: T3, Collagenase 3; experiment: Inhibition of Matrix metalloprotease-13 at 10 uM
Collagenase 3 [7] = molecular target: T3, Collagenase 3; experiment: Inhibition of Matrix metalloprotease-13
[8] = molecular target: T2, Matrix metalloproteinase-9; experiment: Inhibition of Matrix metalloprotease-9 at 1 uM
Collagenase 3 [9] = molecular target: T3, Collagenase 3; experiment: Inhibition of Matrix metalloprotease-13 at 1 uM
THP-1 [10] = experiment: Compound was evaluated for its ability to inhibit LPS-stimulated TNF-alpha production in THP-1 cells at a concentration of 1 uM; format: functional; details: Homo sapiens
THP-1 [11] = experiment: Compound was evaluated for its ability to inhibit […] production using THP-1 cellular assay at a concentration of 1 uM; format: functional; details: Homo sapiens
[12] = molecular target: T2, Matrix metalloproteinase-9; experiment: Inhibition of Matrix metalloprotease-9 at 10 uM

SMILES | inhibition [1] | inhibition at 3 µM (THP-1 [4]) | IC50 [5] | also measured
Cc1cc(Br)cc(C(=O)NO)c1N(C)S(=O)(=O)c1ccc(OCC#CCNCCCN(C)C)cc1 | 32% | – | – | –
CC#CCOc1ccc(S(=O)(=O)N(C)c2c(C(=O)NO)cc(-c3ccccc3)cc2C2CCN(C)CC2)cc1 | – | 95% | 42 nM | IC50 [2]: 28 nM; IC50 (Collagenase 3 [3]): 47 nM; IC50 (Interstitial collagenase): 1920 nM
CC#CCOc1ccc(S(=O)(=O)Nc2c(C)cccc2C(=O)NO)cc1 | 6% | 7% | 84 nM | inhibition (Collagenase 3 [6]): 42%
CNCC#CCOc1ccc(S(=O)(=O)N(C)c2c(C)cc(Br)cc2C(=O)NO)cc1 | 26% | – | – | –
CCN(CC)CC#CCOc1ccc(S(=O)(=O)N(C)c2c(C)cc(Br)cc2C(=O)NO)cc1 | 21% | – | – | –
CC#CCOc1ccc(S(=O)(=O)N(C)c2c(C(=O)NO)cc(Br)cc2C2CCN(C)CC2)cc1 | – | 94% | 25 nM | IC50 [2]: 166 nM; IC50 (Collagenase 3 [7]): 252 nM
CC#CCOc1ccc(S(=O)(=O)N(C)c2c(C)cccc2C(=O)NO)cc1 | 85% | 55% | 28 nM | IC50 (Collagenase 3 [3]): 416 nM
Cc1cc(Br)cc(C(=O)NO)c1N(C)S(=O)(=O)c1ccc(OCc2cccnc2)cc1 | 42% | 9% | 28 nM | inhibition [8]: 28%; inhibition (Collagenase 3 [9]): 48%
Cc1cc(Br)cc(C(=O)NO)c1N(C)S(=O)(=O)c1ccc(OCC#CCO)cc1 | – | – | – | inhibition at 1 µM (THP-1 [10]): 69%
CC#CCOc1ccc(S(=O)(=O)N(C)c2c(C)cc(Br)cc2C(=O)NO)cc1 | – | – | – | inhibition at 1 µM (THP-1 [11]): 59%
CC#CCOc1ccc(S(=O)(=O)N(C)c2ccccc2C(=O)NO)cc1 | 35% | 32% | 27 nM | inhibition [12]: 61%
COc1ccc(S(=O)(=O)N(C)c2c(C(=O)NO)cc(Br)cc2C2CCN(C)CC2)cc1 | – | 42% | 26 nM | IC50 [2]: 2 nM; IC50 (Collagenase 3 [3]): 5 nM; IC50 (Interstitial collagenase): 194 nM
CCCCOc1ccc(S(=O)(=O)N(C)c2c(C)cc(Br)cc2C(=O)NO)cc1 | – | 0% | 67 nM | –
